For test [1], the system named is Staphylococcus epidermidis. Briefly: PicoGreen DNA marking with nisine alone, cytometry in solid phase. Type of test: cell-based. The note with it: nisine solutions 2, 10, 50 μg/ml, bacteria in PBS. The protocol:
The use of nisine solely as a permeabilizing agent for facilitating penetration of the marking agent.
Prepare a series of dilutions of nisine (starting material at 2.5% weight/weight) in distilled water: • 0.1 g nisine in 50 ml distilled water=solution 50 μg/ml, • 0.02 g of nisine in 50 ml distilled water=solution 10 μg/ml, • 0.004 g of nisine in 50 ml distilled water=solution 2 μg/ml. Suspension of Bacteria Prepared in PBS • Escherichia coli (CIP 105901) • Staphylococcus epidermidis (68.21)
Adjust the preparations in order to obtain a suspension with 10^4 bacteria/ml.

Test [2] relates to Escherichia coli. Briefly: Optimization of nisine/EDTA concentrations, cytometry in solid phase. Type of test: cell-based. To be noted: EDTA fixed at 7.5 mM. On the procedure:
(§1) Prepare a solution of PicoGreen at 1/2000 (molecular probe) in PBS buffer (saline phosphate buffer, pH 7.4).
(§2) […] nisine (starting material at 2.5% weight/weight) in 50 ml distilled water or 10 μg/ml,
(§3) Nisine 0.05 μg/ml/EDTA 7.5 mM: 250 μl nisine 10 μg/ml +0.140 g disodic EDTA, QSP 50 mL distilled water,
(§4) Nisine 0.1 μg/ml/EDTA 7.5 mM: […] nisine 10 μg/ml +0.140 g disodic EDTA, QSP 50 mL distilled water,
(§5) Nisine 0.5 μg/ml/EDTA 7.5 mM: 2.5 ml nisine 10 μg/ml+0.140 g disodic EDTA, QSP 50 mL water.
(§6) • Escherichia coli (CIP 105901) • Staphylococcus epidermidis (CIP 68.21) • Serratia marcescens (CIP 103716)
(§7) Adjust the preparations to obtain a suspension with 10^3 bacteria/ml.
(§8) • 1.2 mL marking solution • +3 mL bacterial suspension • Incubation 15 minutes at 22° C. • +7 ml solution of nisine/EDTA at different concentrations • Filtration on char filter 0.4 μm porosity. III Analysis and Results
(§9) After filtration, the filter is analyzed by cytometry in solid phase and the results expressed as the number of bacteria detected in cytometry in solid phase.

In test [3] the test system is Escherichia coli, Serratia marcescens, Staphylococcus epidermidis. The experiment in a line: Optimization of nisine/EDTA concentrations, entirety of bacteria tested. Type of test: cell-based. On the procedure:
as §1, §2, §3, §4, §5, §6, §7, §8, §9

Test [4] relates to Escherichia coli. Briefly: PicoGreen DNA marking with association nisine/EDTA, cytometry in solid phase. Format: cell-based. The protocol:
as §1
Nisine 10 μg/ml: 0.02 g nisine (starting material at 2.5% weight/weight) QSP 50 ml distilled water. • EDTA 20 mM: 0.372 g disodic EDTA, QSP 50 ml of distilled water, • Prepare a range of EDTA with 0.25; 2.5; 12.5 and 18.75 ml of EDTA 20 mM (concentration range 0.1; 1; 5 and 7.5 mM), • Add 50, 250, 500 μl or 1 ml nisine 10 μg/ml (concentration range […]; 0.05; 0.1 and […]), • QSP 50 ml of distilled water. Suspension of Bacteria Prepared in PBS • Escherichia coli (CIP 105901)
as §7
• 1.2 ml of marking solution • +3 ml bacterial suspension • Incubation 15 minutes at 22° C. • +7 ml of solution of nisine or nisine/EDTA • Filtration on char filter 0.4 μm porosity. III Analysis and Results
After filtration, the filter is analyzed by cytometry in solid phase and the results expressed as the number of bacteria detected in cytometry in solid phase and as a percentage of bacteria detected relative to the method of enzymatic detection.

The subject of test [5] is Pseudomonas aeruginosa. Briefly: Marking in the presence of chlorohexidine alone in different environments. Type of test: cell-based. To be noted: bacteria in PBS, platelet concentrate, autologous plasma. On the procedure: Test implementing chlorohexidine only as permeabilizing agent for favoring the penetration of the bacterial marking agent. […] The counting on a Petri dish at 48 hours takes place with the reference method.

Test [6] deals with Escherichia coli, Pseudomonas aeruginosa and Serratia marcescens. Briefly: Marking in the presence of chlorohexidine alone, Gram- strains. Format: cell-based. The note with it: tested range 0.01%, 0.005%, 0.001%. The protocol:
(§10) Test implementing chlorohexidine only as permeabilizing agent for favoring the penetration of the bacterial marking agent. […] The counting on a Petri dish at 48 hours takes place with the reference method. The results of this experiment with a composition of the reaction environment comprising chlorohexidine as cellular penetration reactant to improve the marking of Escherichia coli, Pseudomonas aeruginosa and Serratia marcescens (Gram (−) bacterial strains) and Staphylococcus epidermidis are illustrated in FIG. 8.

In test [7] the test system is Escherichia coli, Staphylococcus epidermidis, Serratia marcescens, Pseudomonas aeruginosa. The experiment in a line: Marking with association chlorohexidine/N-octyl glucopyranoside. Type of test: cell-based. To be noted: most elevated chlorohexidine concentration (0.001% vs 0.0005%) with NOG; PBS and platelet concentrate. From the text:
The results of this experiment showing the marking of DA and the detection of marked bacteria in the presence of a composition of the reaction environment comprising chlorohexidine in association with NOG for increasing the permeabilizing power and the penetration of the marker are illustrated in FIGS. 10A and 10B.

In test [8] the test system is Staphylococcus epidermidis. The experiment in a line: Marking in the presence of chlorohexidine alone, Gram+. To be noted: chlorohexidine 0.005%. Type of test: cell-based. On the procedure:
as §10

For test [9], the system named is Escherichia coli. The note with it: EDTA 5 mM; PBS, distilled water, TSB, plasma. On the procedure:
(§11) Prepare a solution of PicoGreen at 1/2000 (molecular probe) in PBS buffer. EDTA 5 mM: 0.093 g disodic EDTA, QSP 50 mL distilled water. Suspension of bacteria prepared in PBS in distilled water in a TSB (tryptone soy broth) environment and in plasma. • Escherichia coli (CIP 105901) • Staphylococcus epidermidis (CIP 68.21) Adjust the preparations to obtain a suspension with 10^3 bacteria/ml. • 1.2 mL of marking solution • +3 mL of bacterial suspension in the various environments • Incubation 15 minutes at 22° C. • +7 mL of EDTA solution • Filtration on char filter 0.4 μm porosity. III Analysis and Results After filtration, the filter is analyzed by cytometry in solid phase and the results are expressed as the number of fluorescent bacteria.

Test [10] relates to Staphylococcus epidermidis. To be noted: EDTA 5 mM; PBS, distilled water, TSB, plasma. The protocol: as §11
Test [11] deals with Pseudomonas aeruginosa. Briefly: Marking with nisine/EDTA/N octyl glucopyranoside. Type of test: cell-based. The note with it: NOG 0.25% and 0.5% with nisine 0.2 μg/ml, EDTA 7.5 mM. On the procedure:
(§12) 100 μg/ml: […] (starting material at 2.5% weight/weight) QSP 50 ml distilled water. • EDTA 100 mM: […] disodic EDTA, QSP 50 ml distilled water, • N octyl glucopyranoside 5%: 2.5 g in 50 ml distilled water • 20, 10, 5 or 2.5 ml NOG at 5% • +3.75 ml EDTA 100 mM • +0.1 ml […] 100 μg/ml • QSP 50 ml distilled water • This solution is at pH 4.8.

The subject of test [12] is Staphylococcus epidermidis. Briefly: Marking with nisine/EDTA/N octyl glucopyranoside. Format: cell-based. The note with it: NOG 0.25% and 0.5% with nisine 0.2 μg/ml, EDTA 7.5 mM. The protocol:
as §12

Experimental findings from patent US20060134729A1, “Process for the universal detection of microorganisms and reaction environment permitting the implementation of the process” (HEMOSYSTEM, a corporation of France, priority 2002, published 2006) are described below.

As for nisine, the “preferable nisine concentration for marking” value in test [1] is reported as “low concentrations are preferable”. In test [1] (PicoGreen), the “marking of the Gram+ on addition of nisine” value was “good marking”. For the same molecule, the “nisine concentration at which percentage of marked Escherichia coli is maximal” value in test [2] and in test [4] (with EDTA 7.5 mM) was 0.1 µg/mL throughout. The “nisine concentration giving better detection of the entirety of bacteria tested” value in [3] (associated with EDTA 7.5 mM) came to 0.2 µg/mL.
Consider `CC(=O)O.CC(=O)O.NC(=N\CCCCCC/N=C(N)/N=C(\N)Nc1ccc(Cl)cc1)/N=C(\N)Nc1ccc(Cl)cc1` [chlorohexidine, Diacetate chlorohexidine], for which, in [5], the “effect of plasma on cellular penetration of the marker with chlorohexidine” value is reported as “presence of plasma antagonizes the effect”. Besides, in test [6], the “optimal concentration for the detection of Gram- bacteria” value stood at 0.005%. In test [7], the “marking of the bacteria” value was “best marking”. For the same molecule, the “effect on Gram+ bacteria” value in [8] is reported as “toxic”.
With `O=C([O-])CN(CCN(CC(=O)[O-])CC(=O)O)CC(=O)O.[Na+].[Na+]` [EDTA, disodic EDTA], in [9], the “marking of Gram- bacteria with EDTA by itself” value is given as “does not permit a correct marking”. The “marking of Gram+ bacteria with EDTA by itself” value in test [10] is given as “does not permit a correct marking”. For the same molecule, the “EDTA concentration giving better detection of the entirety of bacteria tested” value in test [3] (associated with nisine 0.2 μg/ml) amounted to 7.5 mM. In addition, the “EDTA concentration at which percentage of marked Escherichia coli is maximal” value in test [4] (with nisine 0.1 μg/ml) amounted to 7.5 mM.
Regarding `CCCCCCCCO[C@@H]1O[C@H](CO)[C@@H](O)[C@H](O)[C@H]1O` [N octyl glucopyranoside, N-octyl β D-glucopyranoside], the “effect of addition on the marking of Pseudomonas aeruginosa” value in [11] is “positive effects”. In addition, the “effect of addition on the marking of Staphylococcus epidermidis” value in test [12] is given as “positive effects”.
